What all share (experiment): biochemical
One assay has as its target T1, hFAP (M39-A757) (Homo sapiens, UniProt Q12884).
T1 sequence (Q12884 39-757): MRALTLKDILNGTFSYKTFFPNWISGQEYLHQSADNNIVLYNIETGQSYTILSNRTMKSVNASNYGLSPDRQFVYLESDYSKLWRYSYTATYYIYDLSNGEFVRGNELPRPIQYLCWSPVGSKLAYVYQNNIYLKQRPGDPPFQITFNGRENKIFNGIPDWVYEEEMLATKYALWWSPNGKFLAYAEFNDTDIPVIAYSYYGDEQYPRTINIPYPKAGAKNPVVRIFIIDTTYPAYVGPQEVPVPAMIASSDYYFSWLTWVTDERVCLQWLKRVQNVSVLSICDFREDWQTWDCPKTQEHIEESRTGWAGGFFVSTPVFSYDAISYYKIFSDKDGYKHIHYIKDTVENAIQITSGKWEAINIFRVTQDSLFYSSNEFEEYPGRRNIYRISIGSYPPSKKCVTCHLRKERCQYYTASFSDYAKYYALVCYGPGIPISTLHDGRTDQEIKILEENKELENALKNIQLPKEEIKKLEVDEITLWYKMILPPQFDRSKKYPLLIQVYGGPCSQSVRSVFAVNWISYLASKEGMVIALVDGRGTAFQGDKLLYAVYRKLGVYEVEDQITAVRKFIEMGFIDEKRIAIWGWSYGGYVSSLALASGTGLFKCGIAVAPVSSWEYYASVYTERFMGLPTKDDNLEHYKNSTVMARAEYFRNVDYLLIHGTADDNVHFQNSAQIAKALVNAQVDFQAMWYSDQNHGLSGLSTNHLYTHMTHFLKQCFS

Assay [1] concerns the target T2, Prolyl endopeptidase, Prolyl Oligopeptidase (hPREP) (Homo sapiens, UniProt P48147).
T2 sequence (P48147 1-710): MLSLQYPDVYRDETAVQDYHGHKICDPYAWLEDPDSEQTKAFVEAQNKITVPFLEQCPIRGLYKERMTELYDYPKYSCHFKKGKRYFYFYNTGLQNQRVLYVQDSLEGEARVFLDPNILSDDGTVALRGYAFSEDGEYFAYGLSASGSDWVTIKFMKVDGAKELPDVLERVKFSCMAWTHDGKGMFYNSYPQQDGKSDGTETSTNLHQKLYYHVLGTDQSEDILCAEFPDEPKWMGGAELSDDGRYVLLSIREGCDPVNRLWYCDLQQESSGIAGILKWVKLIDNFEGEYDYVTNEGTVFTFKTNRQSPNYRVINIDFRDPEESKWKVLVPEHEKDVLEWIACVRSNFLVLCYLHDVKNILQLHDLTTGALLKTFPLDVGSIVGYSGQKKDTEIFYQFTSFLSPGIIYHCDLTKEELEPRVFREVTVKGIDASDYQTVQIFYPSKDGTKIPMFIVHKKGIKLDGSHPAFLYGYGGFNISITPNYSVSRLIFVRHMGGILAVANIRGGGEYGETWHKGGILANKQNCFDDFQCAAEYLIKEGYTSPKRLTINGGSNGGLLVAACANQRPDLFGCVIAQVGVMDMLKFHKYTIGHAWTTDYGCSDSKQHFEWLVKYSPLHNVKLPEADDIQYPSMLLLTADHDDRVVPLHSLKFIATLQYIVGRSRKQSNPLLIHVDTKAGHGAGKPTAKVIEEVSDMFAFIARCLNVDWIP

The target in a further assay is T3, hFAP (Homo sapiens, UniProt Q12884).
T3 sequence (Q12884 38-760): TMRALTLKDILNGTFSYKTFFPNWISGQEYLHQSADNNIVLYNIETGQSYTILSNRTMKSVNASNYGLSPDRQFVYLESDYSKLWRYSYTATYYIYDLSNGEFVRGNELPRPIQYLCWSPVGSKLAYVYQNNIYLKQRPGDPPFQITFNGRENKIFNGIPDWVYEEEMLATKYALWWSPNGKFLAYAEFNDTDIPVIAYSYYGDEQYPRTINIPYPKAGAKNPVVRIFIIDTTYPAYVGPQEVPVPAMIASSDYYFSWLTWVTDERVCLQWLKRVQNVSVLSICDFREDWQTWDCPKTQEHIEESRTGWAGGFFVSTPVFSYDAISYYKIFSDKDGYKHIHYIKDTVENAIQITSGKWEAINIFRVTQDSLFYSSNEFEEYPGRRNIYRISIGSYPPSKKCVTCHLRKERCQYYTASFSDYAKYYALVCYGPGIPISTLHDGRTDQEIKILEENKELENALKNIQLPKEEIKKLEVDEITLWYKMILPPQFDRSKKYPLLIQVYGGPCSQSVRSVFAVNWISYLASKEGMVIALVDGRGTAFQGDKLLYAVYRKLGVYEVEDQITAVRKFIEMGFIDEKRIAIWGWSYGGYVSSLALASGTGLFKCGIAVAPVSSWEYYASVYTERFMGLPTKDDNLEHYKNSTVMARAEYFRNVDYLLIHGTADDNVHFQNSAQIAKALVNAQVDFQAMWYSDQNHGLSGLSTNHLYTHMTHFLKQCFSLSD

The record followed here is US20260070899A1, “N-(2-(4-CYANOTHIAZOLIDIN-3-YL)-2-OXOETHYL)-QUINOLINE-4-CARBOXAMIDES” (AstraZeneca AB, priority 2022, published 2026).

Structures are written as SMILES.
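Throughout, for Kd: surface plasmon resonance direct binding to hFAP amine-coupled on a sensor chip, rising compound concentrations by single cycle kinetics, Kd from global fit of interaction models.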

Experimental for hFAP (M39-A757): Compounds were tested in a direct binding assay using 8K surface plasmon resonance biosensor (GE Healthcare) at 20° C. Immobilization of hFAP (M39-A757) on a CMD200M sensor chip (Xantec) was performed using standard amine coupling procedure in immobilization buffer (10 mM HEPES, 150 mM NaCl, 0.05% Tween20, pH 7.4). The surface was washed with 10 mM aq NaOH, 1M NaCl before being activated with EDC/NHS (GE Healthcare), followed by immobilization of hFAP (in 10 mM Acetate pH 5.0). Finally, the surface was deactivated by ethanolamine. Immobilization levels of hFAP were around 4000-6000 RU. The reference spot was treated as described, omitting the injection of hFAP. Compound concentration series were injected over the immobilized protein in increasing concentrations (2-500 nM) using single cycle kinetics in running buffer (20 mM TRIS, 150 mM NaCl, 0.05% Tween20, 1% DMSO, pH 7.4). Interaction models were fitted globally to the experimental traces, enabling determination of kon, koff and Kd.

For `CC(c1ccc2nccc(C(=O)NCC(=O)N3CSC[C@H]3C#N)c2c1)c1ncccc1F` (mixture of isomers) [Example 12, N-(2-((R)-4-Cyanothiazolidin-3-yl)-2-oxoethyl)-6-((RS)-1-(3-fluoropyridin-2-yl)ethyl)quinoline-4-carboxamide], the affinity at hFAP (M39-A757), expressed as Kd, was 0.19 nM. Further, the IC50 in assay [1] was determined as 110 nM. Consider `CC(O)c1ccc2nccc(C(=O)NCC(=O)N3CSC[C@H]3C#N)c2c1` (mixture of isomers) [Example 25, N-(2-((R)-4-Cyanothiazolidin-3-yl)-2-oxoethyl)-6-((RS)-1-hydroxyethyl)quinoline-4-carboxamide], for which, at hFAP (M39-A757), the Kd amounted to 0.8 nM. Moreover, the IC50 against hFAP came out at 0.66 nM; in assay [1], 440 nM.

Molecule `COC(C)c1ccc2nccc(C(=O)NCC(=O)N3CSC[C@H]3C#N)c2c1` (mixture of isomers) [Example 26, N-(2-((R)-4-Cyanothiazolidin-3-yl)-2-oxoethyl)-6-((RS)-1-methoxyethyl)quinoline-4-carboxamide] gave a Kd on hFAP (M39-A757) of 4.7 nM. Also, the IC50 on hFAP was 0.84 nM; in assay [1] it was 470 nM. As for `COCC(OC)c1ccc2nccc(C(=O)NCC(=O)N3CSC[C@H]3C#N)c2c1` (mixture of isomers) [Example 30, N-(2-((R)-4-Cyanothiazolidin-3-yl)-2-oxoethyl)-6-((RS)-1,2-dimethoxyethyl)quinoline-4-carboxamide], the Kd at hFAP (M39-A757) came out at 0.63 nM. The results for the IC50 (against hFAP; in assay [1]) were 1.7 nM and 1700 nM, respectively.

In the case of `Cc1cc(C(C)c2ccc3nccc(C(=O)NCC(=O)N4CSC[C@H]4C#N)c3c2)no1` (mixture of isomers) [Example 46, N-(2-((R)-4-Cyanothiazolidin-3-yl)-2-oxoethyl)-6-((RS)-1-(5-methylisoxazol-3-yl)ethyl)quinoline-4-carboxamide], the Kd at hFAP (M39-A757) was 0.13 nM. The same molecule had an IC50 in assay [1] of 80 nM. Take `N#C[C@@H]1CSCN1C(=O)CNC(=O)c1ccnc2ccc(CC3CCOC3)cc12` (mixture of isomers) [Example 65, N-(2-((R)-4-Cyanothiazolidin-3-yl)-2-oxoethyl)-6-(((RS)-tetrahydrofuran-3-yl)methyl)quinoline-4-carboxamide]: the Kd at hFAP (M39-A757) came out at 0.091 nM. The molecule further gave an IC50 in assay [1] of 210 nM. As to `CO[C@H]1C[C@](F)(c2ccc3nccc(C(=O)NCC(=O)N4CSC[C@H]4C#N)c3c2)C1` (single isomer, unassigned) [Example 62, N-(2-((R)-4-Cyanothiazolidin-3-yl)-2-oxoethyl)-6-((1r,3R*)-1-fluoro-3-methoxycyclobutyl)quinoline-4-carboxamide], on hFAP (M39-A757), the Kd is 0.11 nM. In addition, the IC50 in assay [1] turned out to be 520 nM. Consider `CO[C@H]1C[C@](F)(c2ccc3nccc(C(=O)NCC(=O)N4CSC[C@H]4C#N)c3c2)C1` (single isomer, unassigned) [Example 63, N-(2-((R)-4-Cyanothiazolidin-3-yl)-2-oxoethyl)-6-((1r,3R*)-1-fluoro-3-methoxycyclobutyl)quinoline-4-carboxamide], for which binding at hFAP (M39-A757) was characterised by a dissociation constant (Kd) of 0.097 nM. This molecule also gave an IC50 in assay [1] of 330 nM. `N#C[C@@H]1CSCN1C(=O)CNC(=O)c1ccnc2ccc(CN3CCOCC3)cc12` [Example 24, (R)—N-(2-(4-Cyanothiazolidin-3-yl)-2-oxoethyl)-6-(morpholino-methyl)quinoline-4-carboxamide] had a Kd on hFAP (M39-A757) of 0.33 nM. In assay [1], this molecule came in with an IC50 of 1000 nM.

Regarding `COCCOCc1ccc2nccc(C(=O)NCC(=O)N3CSC[C@H]3C#N)c2c1` [Example 31, (R)—N-(2-(4-Cyanothiazolidin-3-yl)-2-oxoethyl)-6-((2-methoxyethoxy)-methyl)quinoline-4-carboxamide], at hFAP (M39-A757), the Kd was found to be 0.4 nM. The molecule further showed an IC50 in assay [1] of 910 nM. In the same order, the values of `N#C[C@@H]1CSCN1C(=O)CNC(=O)c1ccnc2ccc(C3(c4ncccc4F)CC3)cc12` [Example 44, (R)—N-(2-(4-Cyanothiazolidin-3-yl)-2-oxoethyl)-6-(1-(3-fluoropyridin-2-yl)cyclopropyl)quinoline-4-carboxamide] are 0.14 nM and 65 nM. As for `N#C[C@@H]1CSCN1C(=O)CNC(=O)c1ccnc2ccc(C3(c4ccc(Cl)cn4)CC3)cc12` [Example 47, (R)-6-(1-(5-Chloropyridin-2-yl)cyclopropyl)-N-(2-(4-cyanothiazolidin-3-yl)-2-oxoethyl)quinoline-4-carboxamide], the affinity at hFAP (M39-A757), expressed as Kd, was 0.22 nM. Also, half-maximal inhibition in assay [1] (IC50) was put at 240 nM.

The molecule `C#CC1(c2ccc3nccc(C(=O)NCC(=O)N4CSC[C@H]4C#N)c3c2)CCOCC1` [Example 57, (R)—N-(2-(4-Cyanothiazolidin-3-yl)-2-oxoethyl)-6-(4-ethynyl-tetrahydro-2H-pyran-4-yl)quinoline-4-carboxamide] came in with an IC50 in assay [1] of 790 nM. This counts as sub-micromolar. For `N#C[C@@H]1CSCN1C(=O)CNC(=O)c1ccnc2ccc(C3(F)CCOCC3)cc12` [Example 64, (R)—N-(2-(4-Cyanothiazolidin-3-yl)-2-oxoethyl)-6-(4-fluorotetrahydro-2H-pyran-4-yl)quinoline-4-carboxamide], on hFAP (M39-A757), the Kd amounted to 0.042 nM. In assay [1], this molecule had an IC50 of 300 nM. For the molecule `CCCOc1ccc2nccc(C(=O)NCC(=O)N3CSC[C@H]3C#N)c2c1` [Example 73, (R)—N-(2-(4-Cyanothiazolidin-3-yl)-2-oxoethyl)-6-propoxyquinoline-4-carboxamide], in assay [1], 160 nM corresponded to half-maximal inhibition (IC50). In assay [1], `N#C[C@@H]1CSCN1C(=O)CNC(=O)c1ccnc2ccc(OCCF)cc12` [Example 74, (R)—N-(2-(4-Cyanothiazolidin-3-yl)-2-oxoethyl)-6-(2-fluoroethoxy)-quinoline-4-carboxamide] yielded an IC50 of 83 nM. Compared with the last molecule, the IC50 is about 1.9-fold lower. Take `N#C[C@@H]1CSCN1C(=O)CNC(=O)c1ccnc2ccc(C3(F)CCC3)cc12` [Example 75, (R)—N-(2-(4-Cyanothiazolidin-3-yl)-2-oxoethyl)-6-(1-fluoro-cyclobutyl)quinoline-4-carboxamide]: the IC50 in assay [1] turned out to be 46 nM. With `N#C[C@@H]1CSCN1C(=O)CNC(=O)c1ccnc2ccc(Cn3cccn3)cc12` [Example 80, (R)-6-((1H-Pyrazol-1-yl)methyl)-N-(2-(4-cyanothiazolidin-3-yl)-2-oxoethyl)quinoline-4-carboxamide], binding at hFAP (M39-A757) was characterised by a dissociation constant (Kd) of 0.3 nM. Moreover, the IC50 in assay [1] was determined as 290 nM. The molecule `COCCCc1ccc2nccc(C(=O)NCC(=O)N3CSC[C@H]3C#N)c2c1` [Example 81, (R)—N-(2-(4-cyanothiazolidin-3-yl)-2-oxoethyl)-6-(3-methoxypropyl)quinoline-4-carboxamide] showed an IC50 in assay [1] of 62 nM. In assay [1], `COCCc1ccc2nccc(C(=O)NCC(=O)N3CSC[C@H]3C#N)c2c1` [Example 82, (R)—N-(2-(4-cyanothiazolidin-3-yl)-2-oxoethyl)-6-(2-methoxyethyl)quinoline-4-carboxamide] yielded an IC50 of 48 nM.
